Laboratory results reported in article PMC11580438, “Enhanced cell stress response and protein degradation capacity underlie artemisinin resistance in Plasmodium falciparum” (mSphere, 2024).

What was measured:
[1] = molecular target: T1, P. falciparum proteasome, β5 activity (20S CP / 26S) (Plasmodium falciparum, UniProt Q8IJT1); experiment: Suc-LLVY-AMC cleavage in lysate of treated trophozoites; assay type: cell-based; settings: intact parasites treated 3 h with 50 or 700 nM, then lysed; direct action on the proteasome not shown; non-specific alkylator; pH 7.5, 37 °C
T1 construct: gene PF3D7_1011400; native proteasome in NP-40 lysate of 26-30 hpi trophozoites; with Proteasome subunit beta type-7 (beta2 subunit); Proteasome subunit beta type-6 (beta1 subunit)

[2] = molecular target: T2, P. falciparum proteasome, β2 activity (20S CP / 26S) (Plasmodium falciparum, UniProt Q8I6T3); experiment: Ac-RLR-AMC cleavage in lysate of treated trophozoites; assay type: cell-based; settings: intact parasites treated 3 h with 50 or 700 nM, then lysed; direct action on the proteasome not shown; non-specific alkylator; pH 7.5, 37 °C
T2 construct: gene PF3D7_1328100; native proteasome in NP-40 lysate of 26-30 hpi trophozoites; with Proteasome subunit beta type-5; Proteasome subunit beta type-6 (beta1 subunit)

[3] = molecular target: T3, P. falciparum proteasome, β1 activity (20S CP / 26S) (Plasmodium falciparum, UniProt Q8I0U7); experiment: Ac-nLPnLD-AMC cleavage in lysate of treated trophozoites; assay type: cell-based; settings: intact parasites treated 3 h with 50 or 700 nM, then lysed; direct action on the proteasome not shown; non-specific alkylator; pH 7.5, 37 °C
T3 construct: gene PF3D7_0931800; native proteasome in NP-40 lysate of 26-30 hpi trophozoites; with Proteasome subunit beta type-7 (beta2 subunit); Proteasome subunit beta type-5

[4] = molecular target: T1, P. falciparum proteasome, β5 activity (20S CP / 26S); experiment: Suc-LLVY-AMC cleavage in lysate of treated trophozoites; assay type: cell-based
[5] = test system: T4, P. falciparum proteasome, β5 activity (20S CP / 26S); settings: intact Kelch13 C580Y parasites treated 3 h, then lysed; direct action on the proteasome not shown; 6 µM substrate, pH 7.5, 37 °C; mutation in the neighbouring β2 subunit, β5 wild type
T4 construct: gene beta5

T1 sequence (Q8IJT1 entry or part of it): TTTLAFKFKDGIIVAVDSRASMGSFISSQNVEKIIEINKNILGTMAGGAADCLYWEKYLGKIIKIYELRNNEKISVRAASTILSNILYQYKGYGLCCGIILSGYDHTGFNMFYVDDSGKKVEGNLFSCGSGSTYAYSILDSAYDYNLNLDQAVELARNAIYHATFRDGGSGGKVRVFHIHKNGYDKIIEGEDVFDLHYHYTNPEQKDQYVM
T3 sequence (Q8I0U7 entry or part of it): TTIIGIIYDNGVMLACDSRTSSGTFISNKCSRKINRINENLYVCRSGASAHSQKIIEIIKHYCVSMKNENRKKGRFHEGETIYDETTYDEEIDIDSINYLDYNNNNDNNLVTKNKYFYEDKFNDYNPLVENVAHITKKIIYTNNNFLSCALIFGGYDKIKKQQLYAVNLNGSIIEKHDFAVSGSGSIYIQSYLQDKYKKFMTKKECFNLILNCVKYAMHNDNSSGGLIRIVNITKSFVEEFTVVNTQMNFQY
T2 sequence (Q8I6T3 entry or part of it): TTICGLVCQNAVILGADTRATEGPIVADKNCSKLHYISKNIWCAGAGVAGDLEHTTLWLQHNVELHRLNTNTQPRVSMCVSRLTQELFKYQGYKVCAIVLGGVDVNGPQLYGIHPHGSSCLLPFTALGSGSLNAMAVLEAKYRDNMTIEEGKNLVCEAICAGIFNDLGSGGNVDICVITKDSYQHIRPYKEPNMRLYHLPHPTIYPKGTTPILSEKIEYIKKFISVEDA

| SMILES | % activity [1] | % activity [2] | % activity [3] | inhibition at 3 µM [4] [%] | % inhibition at 3 μM [5] [%] |
| --- | --- | --- | --- | --- | --- |
| C[C@@H]1CC[C@H]2[C@@H](C)C(O)O[C@@H]3O[C@@]4(C)CC[C@@H]1[C@]32OO4 (some centres unmarked) [DHA] | DHA inhibited all three catalytic subunits of proteasomes derived from Kelch13^WT | DHA inhibited all three catalytic subunits of proteasomes derived from Kelch13^WT | DHA inhibited all three catalytic subunits of proteasomes derived from Kelch13^WT |  |  |
| c1cc(C2CCC3(CC2)OOC2(O3)C3CC4CC(C3)CC2C4)ccc1OCCN1CCOCC1 (centres unmarked) [OZ439] |  |  |  | 28 | 52 |
